Earlier results, collected in patent publication US10335381B2, “Stabilized formulation of triamcinolone acetonide” (University of Mississippi, priority 2006, dated 2019).

Details: Gupta 1983

## CC1(C)O[C@@H]2C[C@H]3[C@@H]4CCC5=CC(=O)C=C[C@]5(C)[C@@]4(F)[C@@H](O)C[C@]3(C)[C@]2(C(=O)CO)O1 [TAA, triamcinolone acetonide]
  optimum pH for TAA stability in aqueous solution: about 3.4
